Measured values from ChEMBL document CHEMBL6177961, “Structure-Based Analysis of Semisynthetic Anti-TB Rufomycin Analogues” (J Nat Prod, 2025).
In brackets after ≈: the same amount, converted by molar mass.

Tests used:
[1] = system: Mycobacterium tuberculosis; assay: Antimycobacterial activity against Mycobacterium tuberculosis H37Rv ATCC 27294 assessed as reduction in bacterial growth by microplate alamar blue assay; format: functional
Mycobacterium avium = assay: Antimycobacterial activity against Mycobacterium avium assessed as reduction in bacterial growth; format: functional
[2] = system: Mycobacteroides abscessus; assay: Antimycobacterial activity against Mycobacterium abscessus ATCC 19977 assessed as reduction in bacterial growth by microplate Alamar blue assay; format: functional
[3] = Binding affinity to N-terminal Mycobacterium tuberculosis ClpC1 assessed as dissociation constant by SPR analysis
[4] = Binding affinity to full length Mycobacterium tuberculosis ClpC1 assessed as dissociation constant by SPR analysis
[5] = Cytotoxicity against African green monkey Vero cells; format: toxicity, cell-based; details: African green monkey (Chlorocebus sabaeus)
[6] = Selectivity index, ratio of IC50 for cytotoxicity against African green monkey Vero cells to MIC for antimycobacterial activity against Mycobacterium tuberculosis H37Rv ATCC 27294; format: toxicity, cell-based; details: read-out: Selectivity Index

For `C/C=C/C[C@@H]1NC(=O)[C@H](CC(C)C)N2C(=O)[C@H](CC(C)[C@H]2OC)N(C)C(=O)[C@H](C)NC(=O)[C@H](Cc2ccc(OC(C)=O)c([N+](=O)[O-])c2)NC(=O)[C@H](CC(C)C)N(C)C(=O)[C@H](Cc2cn(C(C)(C)[C@H]3CO3)c3ccccc23)NC1=O` (stereo partly specified), the MIC [1] was 0.001 µM (≈ 0.0011 µg/mL), the MIC (Mycobacterium avium) was 0.14 µM (≈ 0.154 µg/mL) and the MIC [2] was 0.13 µM (≈ 0.143 µg/mL). The Kd [3] was 0.04 µM, the Kd [4] was 0.044 µM and the IC50 [5] was over 100 µM. It also gave a selectivity ratio [6] of over 71000.

Work on `C/C=C/C[C@@H]1NC(=O)[C@H](CC(C)C)N2C=C(C)C[C@@H](C2=O)N(C)C(=O)[C@H](C)NC(=O)[C@H](Cc2ccc3ocnc3c2)NC(=O)[C@H](CC(C)C)N(C)C(=O)[C@H](Cc2cn(C(C)(C)[C@H](O)CCl)c3ccccc23)NC1=O` yielded an MIC [1] of 0.12 µM (≈ 0.125 µg/mL), an MIC (Mycobacterium avium) of over 10 µM and an MIC [2] of 2.4 µM (≈ 2.5 µg/mL). It also gave a Kd [3] of 0.3 µM, a Kd [4] of 0.43 µM and an IC50 [5] of over 100 µM. The selectivity ratio [6] was over 830.

For `C/C=C/C[C@@H]1NC(=O)[C@H](CC(C)C)N2C=C(C)C[C@@H](C2=O)N(C)C(=O)[C@H](C)NC(=O)[C@H](Cc2ccc3oc(=O)[nH]c3c2)NC(=O)[C@H](CC(C)C)N(C)C(=O)[C@H](Cc2cn(C(C)(C)[C@H](O)CCl)c3ccccc23)NC1=O`, the MIC [1] was 0.12 µM (≈ 0.127 µg/mL), the MIC (Mycobacterium avium) was over 10 µM and the MIC [2] was 2.3 µM (≈ 2.43 µg/mL). For the same compound, the Kd [3] was 0.43 µM, the Kd [4] was 0.51 µM and the IC50 [5] was over 100 µM. It also gave a selectivity ratio [6] of over 830.

`C/C=C/C[C@@H]1NC(=O)[C@H](CC(C)C)N2C=C(C)C[C@@H](C2=O)N(C)C(=O)[C@H](C)NC(=O)[C@H](Cc2ccc(OC(=O)c3ccccc3)c([N+](=O)[O-])c2)NC(=O)[C@H](CC(C)C)N(C)C(=O)[C@H](Cc2cn(C(C)(C)[C@@H](CCl)OC(=O)c3ccccc3)c3ccccc23)NC1=O` showed an MIC [1] of 0.45 µM (≈ 0.571 µg/mL), an MIC (Mycobacterium avium) of over 10 µM and an MIC [2] of over 10 µM. For the same compound, the Kd [3] was 1.4 µM, the Kd [4] was 1.1 µM and the IC50 [5] was over 100 µM. It also gave a selectivity ratio [6] of over 220.

For `C/C=C/C[C@@H]1NC(=O)[C@H](CC(C)C)N2C(=O)[C@H](CC(C)[C@H]2O)N(C)C(=O)[C@H](C)NC(=O)[C@H](Cc2ccc(OC)c([N+](=O)[O-])c2)NC(=O)[C@H](CC(C)C)N(C)C(=O)[C@H](Cc2cn(C(C)(C)[C@H]3CO3)c3ccccc23)N(C)C1=O` (stereo partly specified), the MIC [1] was 0.054 µM (≈ 0.0578 µg/mL), the MIC (Mycobacterium avium) was 9 µM (≈ 9.63 µg/mL) and the MIC [2] was 0.58 µM (≈ 0.621 µg/mL). The Kd [3] was 0.12 µM, the Kd [4] was 0.13 µM and the IC50 [5] was over 100 µM. It also gave a selectivity ratio [6] of over 1900.

`C/C=C/C[C@@H]1NC(=O)[C@H](CC(C)C)N2C(=O)[C@H](CC(C)[C@H]2OC)N(C)C(=O)[C@H](C)NC(=O)[C@H](Cc2ccc(OC)c([N+](=O)[O-])c2)NC(=O)[C@H](CC(C)C)N(C)C(=O)[C@H](Cc2cn(C(C)(C)[C@H](O)COC)c3ccccc23)NC1=O` (stereo partly specified) showed an MIC [1] of 0.023 µM (≈ 0.0254 µg/mL), an MIC (Mycobacterium avium) of 4.5 µM (≈ 4.96 µg/mL) and an MIC [2] of 0.52 µM (≈ 0.573 µg/mL). For the same compound, the Kd [3] was 0.037 µM, the Kd [4] was 0.04 µM and the IC50 [5] was 83 µM. For the same compound, the selectivity ratio [6] was 3600.

With `C/C=C/C[C@@H]1NC(=O)[C@H](CC(C)C)N2C(=O)[C@H](CC(C)[C@H]2OC)N(C)C(=O)[C@H](C)NC(=O)[C@H](Cc2ccc(OC(C)=O)c([N+](=O)[O-])c2)NC(=O)[C@H](CC(C)C)N(C)C(=O)[C@H](Cc2cn(C(C)(C)[C@H](O)CCl)c3ccccc23)NC1=O` (stereo partly specified) the MIC [1] was 0.005 µM (≈ 0.00567 µg/mL), the MIC (Mycobacterium avium) was 0.21 µM (≈ 0.238 µg/mL) and the MIC [2] was 0.21 µM (≈ 0.238 µg/mL). For the same compound, the Kd [3] was 0.038 µM, the Kd [4] was 0.042 µM and the IC50 [5] was over 100 µM. The selectivity ratio [6] was over 20000.

With `C/C=C/C[C@@H]1NC(=O)[C@H](CC(C)C)N2C=C(C)C[C@@H](C2=O)N(C)C(=O)[C@H](C)NC(=O)[C@H](Cc2ccc(O)c(NC(=O)CCl)c2)NC(=O)[C@H](CC(C)C)N(C)C(=O)[C@H](Cc2cn(C(C)(C)[C@H](O)CCl)c3ccccc23)NC1=O` the MIC [1] was 0.098 µM (≈ 0.109 µg/mL), the MIC (Mycobacterium avium) was over 10 µM and the MIC [2] was 2.2 µM (≈ 2.44 µg/mL). For the same compound, the Kd [3] was 0.22 µM, the Kd [4] was 0.31 µM and the IC50 [5] was over 100 µM. The selectivity ratio [6] was over 1000.
